Assay results: US12180187B2, “1-phenyl-5-azinylpyrazolyl-3-oxyalkyl acids and their use for controlling unwanted plant growth” (BAYER AKTIENGESELLSCHAFT, priority 2019, dated 2024)

Columns and labels:
DIGSA [1] = experiment: Pre-emergence action against DIGSA, 1280 g/ha; assay type: in vivo, Digitaria sanguinalis; conditions: visual scoring after about 3 weeks vs untreated controls, 100% = plants have died, 0% = like control plants
Procedure, shortened: (§1)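 Soil-surface application after sowing, before emergence: WP or EC formulations in water with 0.5% additive, 600 litres per hectare, onto sandy loam pots. Damage rated visually in % relative to untreated plants after roughly 3 weeks in a greenhouse.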

ECHCG [2] = experiment: Pre-emergence action against ECHCG, 1280 g/ha; assay type: in vivo, Echinochloa crus-galli; conditions: visual scoring after about 3 weeks vs untreated controls, 100% = plants have died, 0% = like control plants
Procedure, shortened: as §1

LOLRI [3] = experiment: Pre-emergence action against LOLRI, 1280 g/ha; assay type: in vivo, Lolium rigidum; conditions: visual scoring after about 3 weeks vs untreated controls, 100% = plants have died, 0% = like control plants
Procedure, shortened: as §1

POAAN [4] = experiment: Pre-emergence action against POAAN, 1280 g/ha; assay type: in vivo, Poa annua; conditions: visual scoring after about 3 weeks vs untreated controls, 100% = plants have died, 0% = like control plants
Procedure, shortened: as §1

SETVI [5] = experiment: Pre-emergence action against SETVI, 1280 g/ha; assay type: in vivo, Setaria viridis; conditions: visual scoring after about 3 weeks vs untreated controls, 100% = plants have died, 0% = like control plants
Procedure, shortened: as §1

ABUTH [6] = experiment: Pre-emergence action against ABUTH, 1280 g/ha; assay type: in vivo, Abutilon theophrasti; conditions: scored visually after about 3 weeks vs untreated controls (100% = plants have died)
Source text: 1. Pre-Emergence Herbicidal Effect and Crop Plant Compatibility a) Seeds of mono- and dicotyledonous weed plants are placed in plastic pots in sandy loam soil (doubly sown with one species each of mono- or dicotyledonous weed plants per pot) and covered with soil. The compounds of the invention, formulated in the form of wettable powders (WP) or as emulsion concentrates (EC), are then applied onto the surface of the covering soil as aqueous suspension or emulsion with addition of 0.5% additive at a water application rate equivalent to 600 litres per hectare. After the treatment, the pots are placed in a greenhouse and kept under good growth conditions for the trial plants. After about 3 weeks, the effect of the preparations is scored visually in comparison with untreated controls as percentages. For example, 100% activity=the plants have died, 0% activity=like control plants. 1. Pre-Emergence Effectiveness Tables 1 to 12 below show the effects of selected compounds of the general formula (I) according to Tables 1 and 2 on various harmful plants and at an application rate corresponding to 1280 g/ha, which were obtained by the experimental procedure mentioned above.

AMARE [7] = experiment: Pre-emergence action against AMARE, 1280 g/ha; assay type: in vivo, Amaranthus retroflexus; conditions: scored visually after about 3 weeks vs untreated controls (100% = plants have died)
Procedure, shortened: as §1

KCHSC [8] = experiment: Pre-emergence action against KCHSC, 1280 g/ha; assay type: in vivo, Bassia scoparia; conditions: scored visually after about 3 weeks vs untreated controls (100% = plants have died)
Procedure, shortened: as §1

MATIN [9] = experiment: Pre-emergence action against MATIN, 1280 g/ha; assay type: in vivo, Tripleurospermum inodorum (Matricaria inodora); conditions: scored visually after about 3 weeks vs untreated controls (100% = plants have died)
Procedure, shortened: as §1

STEME [10] = experiment: Pre-emergence action against STEME, 1280 g/ha; assay type: in vivo, Stellaria media; conditions: scored visually after about 3 weeks vs untreated controls (100% = plants have died)
Procedure, shortened: as §1

VERPE [11] = experiment: Pre-emergence action against VERPE, 1280 g/ha; assay type: in vivo, Veronica persica; conditions: scored visually after about 3 weeks vs untreated controls (100% = plants have died)
Procedure, shortened: as §1

ALOMY [12] = experiment: Post-emergence action against ALOMY, 1.28 kg/ha; assay type: in vivo, Alopecurus myosuroides; conditions: dosage 1280 g/ha, visual rating about 3 weeks after treatment vs untreated controls
Procedure, shortened: (§2)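 Greenhouse pot test, sandy loam; weeds sprayed post-emergence at one-leaf stage (2–3 weeks after sowing) with WP or EC formulation plus 0.5% additive, 600 l/ha water. Visual rating after about 3 weeks versus untreated controls, 100% = plants dead, 0% = like control.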

ECHCG [13] = experiment: Post-emergence action against ECHCG, 1.28 kg/ha; assay type: in vivo, Echinochloa crus-galli; conditions: dosage 1280 g/ha, visual rating about 3 weeks after treatment vs untreated controls
Procedure, shortened: as §2

POAAN [14] = experiment: Post-emergence action against POAAN, 1.28 kg/ha; assay type: in vivo, Poa annua; conditions: dosage 1280 g/ha, visual rating about 3 weeks after treatment vs untreated controls
Procedure, shortened: as §2

ABUTH [15] = experiment: Post-emergence action against ABUTH, 1.28 kg/ha; assay type: in vivo, Abutilon theophrasti; conditions: dosage 1280 g/ha, visual rating about 3 weeks after treatment vs untreated controls (100% = plants died)
Procedure, shortened: as §2

AMARE [16] = experiment: Post-emergence action against AMARE, 1.28 kg/ha; assay type: in vivo, Amaranthus retroflexus; conditions: dosage 1280 g/ha, visual rating about 3 weeks after treatment vs untreated controls (100% = plants died)
Procedure, shortened: as §2

KCHSC [17] = experiment: Post-emergence action against KCHSC, 1.28 kg/ha; assay type: in vivo, Bassia scoparia; conditions: dosage 1280 g/ha, visual rating about 3 weeks after treatment vs untreated controls (100% = plants died)
Procedure, shortened: as §2

STEME [18] = experiment: Post-emergence action against STEME, 1.28 kg/ha; assay type: in vivo, Stellaria media; conditions: dosage 1280 g/ha, visual rating about 3 weeks after treatment vs untreated controls (100% = plants died)
Procedure, shortened: as §2

VERPE [19] = experiment: Post-emergence action against VERPE, 1.28 kg/ha; assay type: in vivo, Veronica persica; conditions: dosage 1280 g/ha, visual rating about 3 weeks after treatment vs untreated controls (100% = plants died)
Procedure, shortened: as §2

ALOMY [20] = experiment: Pre-emergence action against ALOMY, 1280 g/ha; assay type: in vivo, Alopecurus myosuroides; conditions: visual scoring after about 3 weeks vs untreated controls, 100% = plants have died, 0% = like control plants
Procedure, shortened: as §1

DIGSA [21] = experiment: Post-emergence action against DIGSA, 1.28 kg/ha; assay type: in vivo, Digitaria sanguinalis; conditions: dosage 1280 g/ha, visual rating about 3 weeks after treatment vs untreated controls
Procedure, shortened: as §2

LOLRI [22] = experiment: Post-emergence action against LOLRI, 1.28 kg/ha; assay type: in vivo, Lolium rigidum; conditions: dosage 1280 g/ha, visual rating about 3 weeks after treatment vs untreated controls
Procedure, shortened: as §2

MATIN [23] = experiment: Post-emergence action against MATIN, 1.28 kg/ha; assay type: in vivo, Tripleurospermum inodorum (Matricaria inodora); conditions: dosage 1280 g/ha, visual rating about 3 weeks after treatment vs untreated controls (100% = plants died)
Procedure, shortened: as §2

SETVI [24] = experiment: Post-emergence action against SETVI, 1.28 kg/ha; assay type: in vivo, Setaria viridis; conditions: dosage 1280 g/ha, visual rating about 3 weeks after treatment vs untreated controls
Procedure, shortened: as §2

SMILES	Pre-emergence action against DIGSA (DIGSA [1]) [%]	Pre-emergence action against ECHCG (ECHCG [2]) [%]	Pre-emergence action against LOLRI (LOLRI [3]) [%]	Pre-emergence action against POAAN (POAAN [4]) [%]	Pre-emergence action against SETVI (SETVI [5]) [%]	Pre-emergence action against ABUTH (ABUTH [6]) [%]	Pre-emergence action against AMARE (AMARE [7]) [%]	Pre-emergence action against KCHSC (KCHSC [8]) [%]	Pre-emergence action against MATIN (MATIN [9]) [%]	Pre-emergence action against STEME (STEME [10]) [%]	Pre-emergence action against VERPE (VERPE [11]) [%]	Post-emergence action against ALOMY (ALOMY [12]) [%]	Post-emergence action against ECHCG (ECHCG [13]) [%]	Post-emergence action against POAAN (POAAN [14]) [%]	Post-emergence action against ABUTH (ABUTH [15]) [%]	Post-emergence action against AMARE (AMARE [16]) [%]	Post-emergence action against KCHSC (KCHSC [17]) [%]	Post-emergence action against STEME (STEME [18]) [%]	Post-emergence action against VERPE (VERPE [19]) [%]	Pre-emergence action against ALOMY (ALOMY [20]) [%]	further results
O=C(O)COc1nn(-c2ccccc2F)c(-c2ccc(F)nc2)c1C(F)(F)F [VII-030]	90	90	100	100	100	90	100	90	90	100	90	100	100	100	90	90	90	100	90	–	–
COC(=O)[C@@H](C)Oc1nn(-c2cc(F)ccc2F)c(-c2ccc(F)nc2)c1C#N [VII-099]	100	100	100	100	100	90	100	100	100	100	100	100	–	100	90	100	100	100	100	90	Post-emergence action against DIGSA (DIGSA [21]): 100%; Post-emergence action against LOLRI (LOLRI [22]): 100%; Post-emergence action against MATIN (MATIN [23]): 100%
COC(=O)[C@@H](C)Oc1nn(-c2ccccc2F)c(-c2ccc(F)nc2)c1Br [VII-123-a]	100	100	100	100	100	90	100	100	100	100	100	100	100	100	90	90	90	100	90	100	Post-emergence action against LOLRI (LOLRI [22]): 100%; Post-emergence action against SETVI (SETVI [24]): 100%; Post-emergence action against MATIN (MATIN [23]): 90%
